This passage reports IC50 results from patent US6767890B1, “Peptides having anti-cancer and anti-inflammatory activity” (priority 1998, dated 2004).

Test [1] has as its target Protein Kinase C, Non-Select. In words: Protein Kinase C, Non-Select. enzyme assay. The format is biochemical, rat. The note with it: historical value; read-out: ^1IC, (IC50 of reference compound). On the procedure: (§1) The peptide was further screened in vitro in a variety of enzyme and biochemical assays. Methods employed were adapted from the scientific literature to maximize reliability and reproducibility. The primary literature reference for each assay is listed in Table 11 opposite the results for each assay.
(§2) Results presented in Table 10, “Results,” are the average of duplicate determinations, unless otherwise noted.
(§3) Reference compounds were tested concurrently at 5 concentrations as an integral part of each assay to ensure the validity of the results obtained.
(§4) Enzyme assays were performed under conditions described in Table 8, “Experimental Conditions.”. The commercial suppliers and catalog numbers of substrates employed in this study are given in Table 7, “Material Sources.” The name, commercial source, and catalog numbers of concurrent reference compounds (controls) employed in this study are given in Table 9, “Reference Compound Data.” The reaction catalyzed by each enzyme is listed in Table 8, “Experimental Conditions.”
(§5) Biochemical assay results are presented in Table 10, as the percent inhibition of specific binding or activity, and unless noted are the average of duplicate tubes tested at each concentration.

For test [2], the target named is Ca++/Calmodulin Dep. PK II. In words: Ca++/Calmodulin Dep. PK II enzyme assay. The format is biochemical, rat. The note with it: historical value; read-out: ^1IC, (IC50 of reference compound). As to the method: as §1, §2, §3, §4, §5

Usually IC50 stands for the concentration that inhibits the measured activity by half. Consider `CC1CNCCN1S(=O)(=O)c1cccc2cnccc12` (centres unmarked) [Peptide H-7, reference compound], for which the IC50 in test [1] was 35 µM.

`CN1CCN(CCCN2c3ccccc3Sc3ccc(C(F)(F)F)cc32)CC1` [Trifluoperazine, reference compound]: the IC50 in test [2] amounted to 27 µM.
